41 compounds from patent US8669249B2, “Poly (ADP-ribose) polymerase (PARP) inhibitors” (Takeda Pharmaceutical Company Limited, priority 2009, dated 2014) can be followed below.

The assay deals with T1, catalytic domain of Human PARP (Homo sapiens, UniProt P09874).
T1 construct: The catalytic domain of Human PARP was cloned and prepared; made in house
T1 sequence (P09874 788-1014 limits assumed): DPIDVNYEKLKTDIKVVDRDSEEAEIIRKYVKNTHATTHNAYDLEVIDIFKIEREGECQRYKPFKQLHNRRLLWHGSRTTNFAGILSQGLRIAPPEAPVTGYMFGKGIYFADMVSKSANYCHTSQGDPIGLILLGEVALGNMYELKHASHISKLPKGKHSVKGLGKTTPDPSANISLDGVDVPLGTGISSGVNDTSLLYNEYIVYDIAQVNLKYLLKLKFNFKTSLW
The assay is described as follows: Biacore surface plasmon resonance affinity assay. The note with it: pKD=-log10 KD, KD in mol/L; Biacore T100, 25° C.; read-out: pKD (converted). The assay is classed as binding. An outline of the steps:
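Binding at 25° C on Biacore T100: 1 min compound association then 5 min dissociation (50 μL/min) over immobilized PARP catalytic domain, buffer HBS-P plus 1% DMSO, 0.5 mM TCEP, 5 mM MgCl2, 2-fold dilution series. KD derived as koff/kon from fitted association and dissociation phases.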
On the technique in general: In SPR one partner is held on a chip, and binding of the other changes the refractive index at the surface.
Consider `CCNC(=O)CN1CCN(Cc2ccc3c(c2)NC(=O)C(C)O3)CC1` (centres unmarked) [Compound 178, N-Ethyl-2-(4-((2-methyl-3-oxo-3,4-dihydro-2H-benzo[b][1,4]oxazin-6-yl)methyl)piperazin-1-yl)acetamide], for which the Kd was more than 10 µM.

`CN(C)C1CCN(C(=O)c2ccc3c(c2)NC(=O)CO3)CC1` [Compound 106, 6-(4-(Dimethylamino)piperidine-1-carbonyl)-2H-benzo[b][1,4]oxazin-3(4H)-one]: the Kd was not below 100 µM.

Take `CC1Oc2ccc(-c3cccc(C(=O)N4CCOCC4)c3)cc2NC1=O` (centres unmarked) [Compound 146, 2-Methyl-6-(3-(morpholine-4-carbonyl)phenyl)-2H-benzo[b][1,4]oxazin-3(4H)-one]: the Kd is more than 10 µM.

For the compound `CC1Oc2cc(CN3CCC(c4ccc(C(=O)O)cc4)CC3)ccc2NC1=O` (centres unmarked) [Compound 210, 4-(1-((2-Methyl-3-oxo-3,4-dihydro-2H-benzo[b][1,4]oxazin-7-yl)methyl)piperidin-4-yl)benzoic acid], the Kd is 12.6 to 79.4 µM.

Take `CC(=O)Nc1ccc(-c2ccc3c(c2)NC(=O)C(C)O3)cc1` (centres unmarked) [Compound 155, N-(4-(2-Methyl-3-oxo-3,4-dihydro-2H-benzo[b][1,4]oxazin-6-yl)phenyl)acetamide]: the Kd is more than 10 µM.

For `O=C1COc2ccc(C(=O)CN3CCOCC3)cc2N1` [Compound 112, 6-(2-morpholinoacetyl)-2H-benzo[b][1,4]oxazin-3(4H)-one], the Kd is not below 100 µM.

On to `CCOC(=O)CN(C)Cc1ccc2c(c1)NC(=O)C(C)O2` (centres unmarked) [Compound 88, Ethyl 2-(methyl((2-methyl-3-oxo-3,4-dihydro-2H-benzo[b][1,4]oxazin-6-yl)methyl)amino)acetate], for which the Kd is 12.6 to 79.4 µM.

With `CC1Oc2ccc(-c3ccc(C(=O)N4CCN(C)CC4)cc3)cc2NC1=O` (centres unmarked) [Compound 154, 2-Methyl-6-(4-(4-methylpiperazine-1-carbonyl)phenyl)-2H-benzo[b][1,4]oxazin-3(4H)-one], the Kd was more than 10 µM.

For `CC1Oc2ccc(CN3CCN(c4ccc(C(=O)O)cc4)CC3)cc2NC1=O` (centres unmarked) [Compound 50, 4-(4-((2-Methyl-3-oxo-3,4-dihydro-2H-benzo[b][1,4]oxazin-6-yl)methyl)piperazin-1-yl)benzoic acid], the Kd is 0.0126 to 0.1 µM.

Regarding `CC1Oc2ccc(CN(C)Cc3ccncc3)cc2NC1=O` (centres unmarked) [Compound 66, 2-Methyl-6-((methyl(pyridin-4-ylmethyl)amino)methyl)-2H-benzo[b][1,4]oxazin-3(4H)-one], the Kd is not below 100 µM.

Regarding `O=C1COc2ccc(S(=O)(=O)N3CCCC3)cc2N1` [Compound 117, 6-(Pyrrolidin-1-ylsulfonyl)-2H-benzo[b][1,4]oxazin-3(4H)-one], the Kd was 1.26 to 10 µM.

On to `CCC1Oc2ccc(CN3CCN(c4ccncc4)CC3)cc2NC1=O` (centres unmarked) [Compound 195, 2-Ethyl-6-((4-(pyridin-4-yl)piperazin-1-yl)methyl)-2H-benzo[b][1,4]oxazin-3(4H)-one], for which the Kd is not below 100 µM.

For `CC1Oc2ccc(CN3CCC(CCO)CC3)cc2NC1=O` (centres unmarked) [Compound 87, 6-((4-(2-Hydroxyethyl)piperidin-1-yl)methyl)-2-methyl-2H-benzo[b][1,4]oxazin-3(4H)-one], the Kd is 1.26 to 10 µM.

Consider `CC1Oc2ccc(CN(C)CCc3ccccc3)cc2NC1=O` (centres unmarked) [Compound 85, 2-Methyl-6-((methyl(phenethyl)amino)methyl)-2H-benzo[b][1,4]oxazin-3(4H)-one], for which the Kd was 1.26 to 10 µM.

Consider `O=C1COc2ccc(CCN3CCC(c4ccc(Cl)cc4)CC3)cc2N1` [Compound 131, 6-(2-(4-(4-Chlorophenyl)piperidin-1-yl)ethyl)-2H-benzo[b][1,4]oxazin-3(4H)-one], for which the Kd was 1.26 to 10 µM.

For `O=C1COc2ccc(C(=O)NCC3CCCCC3)cc2N1` [Compound 108, N-(Cyclohexylmethyl)-3-oxo-3,4-dihydro-2H-benzo[b][1,4]oxazine-6-carboxamide], the Kd was not below 100 µM.

On to `CN(C)C1CCN(CC(=O)c2ccc3c(c2)NC(=O)CO3)CC1` [Compound 113, 6-(2-(4-(Dimethylamino)piperidin-1-yl)acetyl)-2H-benzo[b][1,4]oxazin-3(4H)-one], for which the Kd was not below 100 µM.

In the case of `CC1Oc2cc(CN3CCN(c4ccncc4)CC3)ccc2NC1=O` (centres unmarked) [Compound 202, 2-Methyl-7-((4-(pyridin-4-yl)piperazin-1-yl)methyl)-2H-benzo[b][1,4]oxazin-3(4H)-one], the Kd is not below 100 µM.

As for `CC1Oc2cc(CN3CCN(c4ccccc4O)CC3)ccc2NC1=O` (centres unmarked) [Compound 209, 7-((4-(2-Hydroxyphenyl)piperazin-1-yl)methyl)-2-methyl-2H-benzo[b][1,4]oxazin-3(4H)-one], the Kd was 12.6 to 79.4 µM.

For the compound `CONC(=O)c1ccc(-c2ccc3c(c2)NC(=O)C(C)O3)cc1` (centres unmarked) [Compound 152, N-Methoxy-4-(2-methyl-3-oxo-3,4-dihydro-2H-benzo[b][1,4]oxazin-6-yl)benzamide], the Kd is more than 10 µM.

In the case of `CC(C)NC(=O)CN1CCN(Cc2ccc3c(c2)NC(=O)C(C)O3)CC1` (centres unmarked) [Compound 179, N-Isopropyl-2-(4-((2-methyl-3-oxo-3,4-dihydro-2H-benzo[b][1,4]oxazin-6-yl)methyl)piperazin-1-yl)acetamide], the Kd is more than 10 µM.

Consider `CC1Oc2cc(CN3CC[C@H](c4ccccc4)C3)ccc2NC1=O` (stereo partly drawn) [Compound 93, 2-Methyl-7-(((R)-3-phenylpyrrolidin-1-yl)methyl)-2H-benzo[b][1,4]oxazin-3(4H)-one], for which the Kd was 1.26 to 10 µM.

Consider `O=C1Nc2cc(CN3CC=C(c4ccccc4)CC3)ccc2OC1F` (centres unmarked) [Compound 100, 2-Fluoro-6-((4-phenyl-5,6-dihydropyridin-1(2H)-yl)methyl)-2H-benzo[b][1,4]oxazin-3(4H)-one], for which the Kd is 0.0126 to 0.1 µM.

`Cc1ccc(C2CCN(Cc3ccc4c(c3)NC(=O)C(C)O4)CC2)cc1` (centres unmarked) [Compound 36, 2-Methyl-6-((4-p-tolylpiperidin-1-yl)methyl)-2H-benzo[b][1,4]oxazin-3(4H)-one]: the Kd is 0.126 to 1 µM.

Consider `CCC1Oc2ccc(CN3CC=C(c4ccc(Cl)cc4)CC3)cc2NC1=O` (centres unmarked) [Compound 193, 6-((4-(4-Chlorophenyl)-5,6-dihydropyridin-1(2H)-yl)methyl)-2-ethyl-2H-benzo[b][1,4]oxazin-3(4H)-one], for which the Kd is not below 100 µM.

On to `Cc1ccc2c(c1)CCCN2Cc1ccc2c(c1)NC(=O)C(C)O2` (centres unmarked) [Compound 83, 2-Methyl-6-((6-methyl-3,4-dihydroquinolin-1(2H)-yl)methyl)-2H-benzo[b][1,4]oxazin-3(4H)-one], for which the Kd is more than 10 µM.

Regarding `O=C1COc2ccc(CCN3CCC(c4ccccc4)CC3)cc2N1` [Compound 125, 6-(2-(4-Phenylpiperidin-1-yl)ethyl)-2H-benzo[b][1,4]oxazin-3(4H)-one], the Kd was 12.6 to 79.4 µM.

Turning to `CC1Oc2ccc(S(=O)(=O)N3CCOCC3)cc2NC1=O` (centres unmarked) [Compound 118, 2-Methyl-6-(morpholinosulfonyl)-2H-benzo[b][1,4]oxazin-3(4H)-one], the Kd was 1.26 to 10 µM.

As to `CNC(=O)CC1CCN(Cc2ccc3c(c2)NC(=O)C(C)O3)CC1` (centres unmarked) [Compound 182, N-Methyl-2-(1-((2-methyl-3-oxo-3,4-dihydro-2H-benzo[b][1,4]oxazin-6-yl)methyl)piperidin-4-yl)acetamide], the Kd is 12.6 to 79.4 µM.

For `CC1Oc2ccc(-c3ccc(C(N)=O)cc3)cc2NC1=O` (centres unmarked) [Compound 150, 4-(2-Methyl-3-oxo-3,4-dihydro-2H-benzo[b][1,4]oxazin-6-yl)benzamide], the Kd is more than 10 µM.

Regarding `CC1Oc2cc(CN3CCCC(c4ccccc4)C3)ccc2NC1=O` (centres unmarked) [Compound 95, 2-Methyl-7-((3-phenylpiperidin-1-yl)methyl)-2H-benzo[b][1,4]oxazin-3(4H)-one], the Kd is 1.26 to 10 µM.

Turning to `CC1Oc2ccc(CN3CCN(CC(=O)NCC4CC4)CC3)cc2NC1=O` (centres unmarked) [Compound 180, N-(Cyclopropylmethyl)-2-(4-((2-methyl-3-oxo-3,4-dihydro-2H-benzo[b][1,4]oxazin-6-yl)methyl)piperazin-1-yl)acetamide], the Kd is more than 10 µM.

For `O=C1COc2ccc(CN3CCOCC3)cc2N1` [Compound 26, 6-(Morpholinomethyl)-2H-benzo[b][1,4]oxazin-3(4H)-one], the Kd is 1.26 to 10 µM.

With `CC1Oc2ccc(CN3CCN(Cc4cccc(Br)c4)CC3)cc2NC1=O` (centres unmarked) [Compound 43, 6-((4-(3-Bromobenzyl)piperazin-1-yl)methyl)-2-methyl-2H-benzo[b][1,4]oxazin-3(4H)-one], the Kd was 1.26 to 10 µM.

As for `CC1Oc2ccc(CN3CCN(CC(=O)NS(C)(=O)=O)CC3)cc2NC1=O` (centres unmarked) [Compound 181, 2-(4-((2-Methyl-3-oxo-3,4-dihydro-2H-benzo[b][1,4]oxazin-6-yl)methyl)piperazin-1-yl)-N-(methylsulfonyl)acetamide], the Kd was more than 10 µM.

With `CC1Oc2ccc(CN3CCCc4ccccc43)cc2NC1=O` (centres unmarked) [Compound 82, 6-((3,4-Dihydroquinolin-1(2H)-yl)methyl)-2-methyl-2H-benzo[b][1,4]oxazin-3(4H)-one], the Kd was more than 10 µM.

For the compound `O=C1COc2ccc(S(=O)(=O)N3CCCCC3)cc2N1` [Compound 115, 6-(piperidin-1-ylsulfonyl)-2H-benzo[b][1,4]oxazin-3(4H)-one], the Kd was not below 100 µM.

Take `CC1Oc2ccc(CN3CCC(c4noc5cc(F)ccc45)CC3)cc2NC1=O` (centres unmarked) [Compound 55, 6-((4-(6-Fluorobenzo[d]isoxazol-3-yl)piperidin-1-yl)methyl)-2-methyl-2H-benzo[b][1,4]oxazin-3(4H)-one]: the Kd was 1.26 to 10 µM.

In the case of `O=C1COc2ccc(CCN3CC=C(c4ccc(Cl)cc4)CC3)cc2N1` [Compound 127, 6-(2-(4-(4-Chlorophenyl)-5,6-dihydropyridin-1(2H)-yl)ethyl)-2H-benzo[b][1,4]oxazin-3(4H)-one], the Kd is 1.26 to 10 µM.

With `O=C1COc2ccc(C(=O)Nc3ccccc3)cc2N1` [Compound 110, 3-Oxo-N-phenyl-3,4-dihydro-2H-benzo[b][1,4]oxazine-6-carboxamide], the Kd was not below 100 µM.

With `CC1Oc2ccc(-c3cccc(C(N)=O)c3)cc2NC1=O` (centres unmarked) [Compound 142, 3-(2-Methyl-3-oxo-3,4-dihydro-2H-benzo[b][1,4]oxazin-6-yl)benzamide], the Kd was 1.26 to 10 µM.
